Experimental data from patent US10975056B2 (GlaxoSmithKline Intellectual Property Development Limited, priority 2016, dated 2021).
Where “and” joins values, the source holds several entries; their conditions need not be identical. Equal values may be shown once. Where a name gives a salt, the structure may show the parent alone. Read-outs that look alike come from different tables or passages of the source.

How the values were obtained:
DNMT1 = DNMT1 (Homo sapiens, UniProt P26358); assay: DNMT1 biochemical activity, breaklight assay and/or SPA assay
[1] = system: erythroid progenitor cells (EPCs); assay: Fetal hemoglobin (HbF) ELISA in day 7 erythroid progenitor cells; type: cell-based, human; settings: Homo sapiens, Erythroid progenitor cell, HbF ELISA, day 7 EPCs, 5 days; read-out: EPC ELISA (pEC50 category) (converted);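 also: for fetal hemoglobin induction normalized to vehicle-treated cells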
How it was run: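 HbF induction was read by anti-HbF sandwich ELISA (HRP/TMB, OD450) on lysates and normalized to vehicle-treated cells. Cells were day 7 erythroid progenitors derived from human bone marrow CD34+ cells, seeded at 1,000/well with 3 U/mL rhEPO. Compound was given for 5 days at 37 °C at final concentrations […].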

[2] = binned activity in either the breaklight or the SPA assay, read-out: DNMT1 BioChemical (pIC50 category) (converted)
[3] = binned activity in either the breaklight or the SPA assay

DNMT1, sequence (P26358 whole entry, looked up): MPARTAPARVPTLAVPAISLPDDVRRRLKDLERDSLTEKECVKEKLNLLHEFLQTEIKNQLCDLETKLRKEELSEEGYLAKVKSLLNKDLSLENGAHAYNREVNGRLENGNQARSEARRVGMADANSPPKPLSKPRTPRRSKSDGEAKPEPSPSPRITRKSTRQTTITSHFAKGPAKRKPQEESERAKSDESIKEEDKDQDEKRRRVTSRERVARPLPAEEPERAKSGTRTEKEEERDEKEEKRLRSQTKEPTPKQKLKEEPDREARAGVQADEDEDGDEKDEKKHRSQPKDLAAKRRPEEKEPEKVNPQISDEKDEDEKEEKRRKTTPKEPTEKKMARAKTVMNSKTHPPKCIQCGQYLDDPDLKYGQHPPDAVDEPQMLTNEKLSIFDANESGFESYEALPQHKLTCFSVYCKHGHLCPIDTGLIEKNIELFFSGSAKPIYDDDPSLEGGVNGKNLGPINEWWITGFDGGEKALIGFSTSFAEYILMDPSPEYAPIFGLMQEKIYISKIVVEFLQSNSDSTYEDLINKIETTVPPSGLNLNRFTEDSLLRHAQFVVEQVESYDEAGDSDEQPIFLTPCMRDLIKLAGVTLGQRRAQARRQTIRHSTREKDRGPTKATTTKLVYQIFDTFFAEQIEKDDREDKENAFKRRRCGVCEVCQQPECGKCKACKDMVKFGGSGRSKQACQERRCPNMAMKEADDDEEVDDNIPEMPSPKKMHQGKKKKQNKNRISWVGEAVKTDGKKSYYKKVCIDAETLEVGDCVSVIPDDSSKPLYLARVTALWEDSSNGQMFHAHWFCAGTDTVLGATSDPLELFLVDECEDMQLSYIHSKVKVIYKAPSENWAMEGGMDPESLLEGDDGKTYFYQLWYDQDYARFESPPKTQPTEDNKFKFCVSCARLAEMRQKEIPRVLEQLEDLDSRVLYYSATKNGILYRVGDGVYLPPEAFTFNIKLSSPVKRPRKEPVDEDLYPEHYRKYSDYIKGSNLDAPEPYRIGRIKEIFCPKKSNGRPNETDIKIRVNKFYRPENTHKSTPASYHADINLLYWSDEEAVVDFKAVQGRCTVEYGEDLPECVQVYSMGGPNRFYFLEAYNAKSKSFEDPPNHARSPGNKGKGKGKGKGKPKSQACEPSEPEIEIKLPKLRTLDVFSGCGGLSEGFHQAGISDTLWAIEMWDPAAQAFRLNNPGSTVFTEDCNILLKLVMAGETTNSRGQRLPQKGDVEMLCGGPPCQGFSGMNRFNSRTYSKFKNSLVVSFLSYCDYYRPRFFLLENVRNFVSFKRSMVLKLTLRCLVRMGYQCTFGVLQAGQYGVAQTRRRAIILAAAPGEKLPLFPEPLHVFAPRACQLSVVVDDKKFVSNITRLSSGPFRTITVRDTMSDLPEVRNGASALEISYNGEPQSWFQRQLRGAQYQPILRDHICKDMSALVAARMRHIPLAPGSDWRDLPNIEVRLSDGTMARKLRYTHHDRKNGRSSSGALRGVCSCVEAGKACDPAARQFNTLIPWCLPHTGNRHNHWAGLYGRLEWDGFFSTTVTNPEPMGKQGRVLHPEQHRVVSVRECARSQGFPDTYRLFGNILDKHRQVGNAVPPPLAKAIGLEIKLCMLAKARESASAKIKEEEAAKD

Structure (SMILES) | IC50 (DNMT1; [2]) [nM] | EC50 [1] [nM] | DNMT1 BioChemical (pIC50 category) (DNMT1; [3]) | IC50 (DNMT1; breaklight assay and/or SPA assay, repeated experimental runs, read-out: average pIC50 against DNMT1 (converted))
CCc1c(C#N)c(SC(C(N)=O)c2ccccc2)nc(N2CCN(Cc3ccoc3)CC2)c1C#N (centres unmarked) [Example 200, 2-((3,5-Dicyano-4-ethyl-6-(4-(furan-3-ylmethyl)piperazin-1-yl)pyridin-2-yl)thio)-2-phenylacetamide] | 316 to 1000 | 1000 to 31600 | – | –
CCc1c(C#N)c(SCCN2CCOCC2)nc(SC(C(N)=O)c2ccccc2)c1C#N (centres unmarked) [Example 201, 2-((3,5-Dicyano-4-ethyl-6-((2-morpholinoethyl)thio)pyridin-2-yl)thio)-2-phenylacetamide] | 316 to 1000 | 316 to 1000 | – | –
CSc1c(C#N)c(SC(C(N)=O)c2ccccc2)nc(N2CCCN(C)CC2)c1C#N (centres unmarked) [Example 202, 2-((3,5-Dicyano-6-(4-methyl-1,4-diazepan-1-yl)-4-(methylthio)pyridin-2-yl)thio)-2-phenylacetamide] | 316 to 1000 | 316 to 1000 | – | –
CCc1c(Cl)c(SC(C(N)=O)c2ccccc2)nc(N2CCCN(CCO)CC2)c1Cl (centres unmarked) [Example 203, 2-((3,5-Dichloro-4-ethyl-6-(4-(2-hydroxyethyl)-1,4-diazepan-1-yl)pyridin-2-yl)thio)-2-phenylacetamide] | 316 to 1000 | > 31600 | – | –
CCc1c(C#N)c(SC(C(N)=O)c2ccccc2)nc(N2CC3NCCOC3C2)c1C#N (centres unmarked) [Example 204, 2-((3,5-Dicyano-4-ethyl-6-(hexahydropyrrolo[3,4-b][1,4]oxazin-6(2H)-yl)pyridin-2-yl)thio)-2-phenylacetamide] | 316 to 1000 | 1000 to 31600 | – | –
CCc1c(C#N)c(SC(C(N)=O)c2ccc(F)cc2)nc(N2CCC(N(C)C)CC2)c1C#N (centres unmarked) [Example 207, 2-((3,5-Dicyano-6-(4-(dimethylamino)piperidin-1-yl)-4-ethylpyridin-2-yl)thio)-2-(4-fluorophenyl)acetamide] | 316 to 1000 | < 316 | – | –
CCOc1c(C#N)c(SC(C)C(N)=O)nc(N2CCCN(CCO)CC2)c1C#N (centres unmarked) [Example 212, 2-((3,5-Dicyano-4-ethoxy-6-(4-(2-hydroxyethyl)-1,4-diazepan-1-yl)pyridin-2-yl)thio)propanamide] | 316 to 1000 | 1000 to 31600 | – | –
CCCOc1c(C#N)c(SC(C(N)=O)c2ccccc2)nc(N2CCCN(CCO)CC2)c1C#N (centres unmarked) [Example 213, 2-((3,5-Dicyano-6-(4-(2-hydroxyethyl)-1,4-diazepan-1-yl)-4-propoxypyridin-2-yl)thio)-2-phenylacetamide] | 316 to 1000 | 1000 to 31600 | – | –
CCc1c(C#N)c(SC(C(N)=O)c2ccccc2)nc(N2CCC3(CCN(C)C3)CC2)c1C#N (centres unmarked) [Example 215, 2-((3,5-Dicyano-4-ethyl6-(2-methyl-2,8-diazaspiro[4.5]decan-8-yl)pyridin-2-yl)thio)-2-phenylacetamide] | – | < 316 | D (Category D: ≥6.5) | –
CCc1c(C#N)c(SCCN(C)C)nc(SC(C(N)=O)c2ccccc2)c1C#N (centres unmarked) [Example 218, 2-((3,5-Dicyano-6-((2-(dimethylamino)ethyl)thio)-4-ethylpyridin-2-yl)thio)-2-phenylacetamide] | 316 to 1000 | < 316 | – | –
CCc1c(C#N)c(SC(C(N)=O)c2ccccc2)nc(N2C[C@@H](O)[C@@H](O)C2)c1C#N (stereo partly drawn) [Example 219, 2-((3,5-Dicyano-6-((3S,4R)-3,4-dihydroxypyrrolidin-1-yl)-4-ethylpyridin-2-yl)thio)-2-phenylacetamide] | 316 to 1000 | 1000 to 31600 | – | –
CCc1c(C#N)c(SC(C(N)=O)c2cccc(C(F)(F)F)c2)nc(N2CCCN(C)CC2)c1C#N (centres unmarked) [Example 223, 2-((3,5-Dicyano-4-ethyl-6-(4-methyl-1,4-diazepan-1-yl)pyridin-2-yl)thio)-2-(3-(trifluoromethyl)phenyl)acetamide] | 316 to 1000 | 1000 to 31600 | – | –
CCc1c(C#N)c(SC(C(N)=O)c2ccccc2)nc(N(C)CCC(N)=O)c1C#N (centres unmarked) [Example 230, 3-((6-(2-Amino-2-oxo-1-phenylethylthio)-3,5-dicyano-4-ethylpyridin-2-yl)(methyl)amino)propanamide] | 316 to 1000 | 1000 to 31600 | – | –
CCc1c(C#N)c(SC(C(N)=O)c2ccccc2)nc(N2CCC(OC3COC3)CC2)c1C#N (centres unmarked) [Example 231, 2-((3,5-Dicyano-4-ethyl-6-(4-(oxetan-3-yloxy)piperidin-1-yl)pyridin-2-yl)thio)-2-phenylacetamide] | 316 to 1000 | 316 to 1000 | – | –
CCc1c(C#N)c(SC(C(N)=O)c2ccccc2)nc(N2CCC(C)(NCC(F)F)CC2)c1C#N (centres unmarked) [Example 232] | 316 to 1000 | 316 to 1000 | – | –
CCc1c(C#N)c(SC(C(N)=O)c2ccc(C(F)(F)F)cc2)nc(N2CCCN(C)CC2)c1C#N (centres unmarked) [Example 233, 2-((3,5-dicyano-4-ethyl-6-(4-methyl-1,4-diazepan-1-yl)pyridin-2-yl)thio)-2-(4-(trifluoromethyl)phenyl)acetamide] | 316 to 1000 | < 316 | – | –

The next lines start with the values.

IC50 (DNMT1; [2]) [nM] | EC50 [1] [nM] | DNMT1 BioChemical (pIC50 category) (DNMT1; [3]) | IC50 (DNMT1; breaklight assay and/or SPA assay, repeated experimental runs, read-out: average pIC50 against DNMT1 (converted)) | Structure (SMILES)
– | < 316 | D (Category D: ≥6.5) | – | CCc1c(C#N)c(SC(C(N)=O)c2ccc(C)cn2)nc(N2CCCN(C)CC2)c1C#N (centres unmarked) [Example 205, 2-((3,5-Dicyano-4-ethyl-6-(4-methyl-1,4-diazepan-1-yl)pyridin-2-yl)thio)-2-(5-methylpyridin-2-yl)acetamide]
316 to 1000 | > 31600 | – | – | CCc1c(C#N)c(SC(C(N)=O)c2cccc(F)n2)nc(N2CCCN(C)CC2)c1C#N (centres unmarked) [Example 206, 2-((3,5-Dicyano-4-ethyl-6-(4-methyl-1,4-diazepan-1-yl)pyridin-2-yl)thio)-2-(6-fluoropyridin-2-yl)acetamide]
316 to 1000 | 316 to 1000 | – | – | CCc1c(C#N)c(SC(C(N)=O)c2cc(C)ccn2)nc(N2CCCN(C)CC2)c1C#N (centres unmarked) [Example 208]
316 to 1000 | 316 to 1000 | – | – | CCc1c(C#N)c(SC(C(N)=O)c2ncccc2OC)nc(N2CCCN(C)CC2)c1C#N (centres unmarked) [Example 209, 2-((3,5-Dicyano-4-ethyl-6-(4-methyl-1,4-diazepan-1-yl)pyridin-2-yl)thio)-2-(3-methoxypyridin-2-yl)acetamide]
– | < 316 | D (Category D: ≥6.5) | – | CCc1c(C#N)c(SC(C(N)=O)c2ccc(F)cc2F)nc(N2CCC(N(C)C)CC2)c1C#N (centres unmarked) [Example 210, 2-((3,5-Dicyano-6-(4-(dimethylamino)piperidin-1-yl)-4-ethylpyridin-2-yl)thio)-2-(2,4-difluorophenyl)acetamide]
316 to 1000 | < 316 | – | – | CCc1c(C#N)c(SC(C(N)=O)c2ccc(F)cn2)nc(N2CCC(N3CCCC3)CC2)c1C#N (centres unmarked) [Example 211, 2-((3,5-Dicyano-4-ethyl-6-(4-(pyrrolidin-1-yl)piperidin-1-yl)pyridin-2-yl)thio)-2-(5-fluoropyridin-2-yl)acetamide, Formic Acid Salt]
1000 to 31600 | > 31600 | – | – | CCc1c(C#N)c(SC(C(N)=O)c2cc(OC)ccn2)nc(N2CCCN(C)CC2)c1C#N (centres unmarked) [Example 214, 2-((3,5-Dicyano-4-ethyl-6-(4-methyl-1,4-diazepan-1-yl)pyridin-2-yl)thio)-2-(4-methoxypyridin-2-yl)acetamide]
1000 to 31600 | < 316 | – | ≥ 1000 nM and 1580 nM | CCc1c(C#N)c(SC(C(N)=O)c2ccc(F)c(F)c2)nc(N2CCC(N(C)C)CC2)c1C#N (centres unmarked) [Example 216, 2-((3,5-Dicyano-6-(4-(dimethylamino)piperidin-1-yl)-4-ethylpyridin-2-yl)thio)-2-(3,4-difluorophenyl)acetamide]
316 to 1000 | 1000 to 31600 | – | – | CCc1c(C#N)c(SC(C(N)=O)c2ccccc2)nc(N2CCC(C(N)=O)CC2)c1C#N (centres unmarked) [Example 217, 1-(6-((2-Amino-2-oxo-1-phenylethyl)thio)-3,5-dicyano-4-ethylpyridin-2-yl)piperidine-4-carboxamide]
316 to 1000 | < 316 | – | – | CCc1c(C#N)c(SC(C(N)=O)c2ncccc2F)nc(N2CCCN(C)CC2)c1C#N (centres unmarked) [Example 220, 2-((3,5-Dicyano-4-ethyl-6-(4-methyl-1,4-diazepan-1-yl)pyridin-2-yl)thio)-2-(3-fluoropyridin-2-yl) acetamide]
316 to 1000 | < 316 | – | – | CCc1c(C#N)c(SC(C(N)=O)c2ccc(OC)cn2)nc(N2CCCN(C)CC2)c1C#N (centres unmarked) [Example 221, 2-((3,5-Dicyano-4-ethyl-6-(4-methyl-1,4-diazepan-1-yl)pyridin-2-yl)thio)-2-(5-methoxypyridin-2-yl)acetamide]
1000 to 31600 | 316 to 1000 | – | – | CCc1c(C#N)c(SC(C(N)=O)c2ccc(F)cc2)nc(N2CCN(C(C)(C)CO)CC2)c1C#N (centres unmarked) [Example 222, 2-((3,5-Dicyano-4-ethyl-6-(4-(1-hydroxy-2-methylpropan-2-yl)piperazin-1-yl)pyridin-2-yl)thio)-2-(4-fluorophenyl)acetamide]
316 to 1000 | 316 to 1000 | – | – | CCc1c(C#N)c(SC(C(N)=O)c2ccccc2)nc(N2CCC(OCCO)CC2)c1C#N (centres unmarked) [Example 224, 2-((3,5-Dicyano-4-ethyl-6-(4-(2-hydroxyethoxy)piperidin-1-yl)pyridin-2-yl)thio)-2-phenylacetamide]
1000 to 31600 | 316 to 1000 | – | – | CCc1c(C#N)c(SC(C(N)=O)c2cccnc2F)nc(N2CCCN(C)CC2)c1C#N (centres unmarked) [Example 225]
1000 to 31600 | 316 to 1000 | – | – | CCc1c(C#N)c(SC(C(N)=O)c2ccc(F)nc2)nc(N2CCCN(C)CC2)c1C#N (centres unmarked) [Example 228]
316 to 1000 | 1000 to 31600 | – | – | CCc1c(C#N)c(SC(C(N)=O)c2ccccc2)nc(N2CCN(N)CC2)c1C#N (centres unmarked) [Example 234, 2-((6-(4-Aminopiperazin-1-yl)-3,5-dicyano-4-ethylpyridin-2-yl)thio)-2-phenylacetamide, Trifluoroacetic Acid Salt]
